ChEMBL document CHEMBL2021812, “Aryltriflates as a Neglected Moiety in Medicinal Chemistry: A Case Study from a Lead Optimization of CXCL8 Inhibitors” (ACS Med Chem Lett, 2011)

Assays:
Hepatocyte [1] = assay: Drug metabolism in rat hepatocytes assessed as (S)-2-(4-(trifluoromethylsulfonyloxy)phenyl)propanoic acid level at 10 uM after 60 mins; assay type: ADME, cell-based; conditions: 1 h
Hepatocyte [2] = assay: Drug metabolism in rat hepatocytes assessed as (S)-2-(4-(trifluoromethylsulfonyloxy)phenyl)propanoic acid level at 10 uM after 30 mins; assay type: ADME, cell-based; conditions: 0.5 h
Hepatocyte [3] = assay: Drug metabolism in rat hepatocytes assessed as (S)-2-(4-(trifluoromethylsulfonyloxy)phenyl)propanoic acid level at 10 uM after 15 mins; assay type: ADME, cell-based; conditions: 0.25 h
Hepatocyte [4] = assay: Drug metabolism in human hepatocytes assessed as (S)-2-(4-(trifluoromethylsulfonyloxy)phenyl)propanoic acid level at 10 uM after 120 mins; assay type: ADME, cell-based; conditions: 2 h
Hepatocyte [5] = assay: Drug metabolism in human hepatocytes assessed as (S)-2-(4-(trifluoromethylsulfonyloxy)phenyl)propanoic acid level at 10 uM after 90 mins; assay type: ADME, cell-based; conditions: 1.5 h
Hepatocyte [6] = assay: Drug metabolism in human hepatocytes assessed as (S)-2-(4-(trifluoromethylsulfonyloxy)phenyl)propanoic acid level at 10 uM after 60 mins; assay type: ADME, cell-based; conditions: 1 h
Hepatocyte [7] = assay: Drug metabolism in human hepatocytes assessed as (S)-2-(4-(trifluoromethylsulfonyloxy)phenyl)propanoic acid level at 10 uM after 30 mins; assay type: ADME, cell-based; conditions: 0.5 h
Hepatocyte [8] = assay: Drug metabolism in human hepatocytes assessed as (S)-2-(4-(trifluoromethylsulfonyloxy)phenyl)propanoic acid level at 10 uM after 15 mins; assay type: ADME, cell-based; conditions: 0.25 h
[9] = Chemical stability of the compound assessed as compound remaining at pH 9 after 2 hrs; assay type: physicochemical; conditions: buffer, read-out: Stability
[10] = Chemical stability of the compound assessed as compound remaining at pH 3.5 after 2 hrs; assay type: physicochemical; conditions: buffer, read-out: Stability
[11] = Metabolic stability in rat liver microsomes assessed as compound remaining at 1 uM preincubated for 10 mins measured after 30 mins; assay type: ADME, Microsome; conditions: read-out: Stability
[12] = Metabolic stability in rat plasma assessed as compound remaining at 1 uM after 1 hr; assay type: ADME, cell-free; conditions: read-out: Stability
CYP2C19 = CYP2C19 (Homo sapiens, UniProt P33261); assay: Inhibition of CYP2C19 using DBF as substrate at 10 uM; assay type: ADME; conditions: probe DBF
Hepatocyte [13] = assay: Drug metabolism in human hepatocytes assessed as (R)-2-(4-(trifluoromethylsulfonyloxy)phenyl)propanoic acid level at 10 uM after 15 mins; assay type: ADME, cell-based; conditions: 0.25 h
Hepatocyte [14] = assay: Drug metabolism in human hepatocytes assessed as (R)-2-(4-(trifluoromethylsulfonyloxy)phenyl)propanoic acid level at 10 uM after 30 mins; assay type: ADME, cell-based; conditions: 0.5 h
Hepatocyte [15] = assay: Drug metabolism in human hepatocytes assessed as (R)-2-(4-(trifluoromethylsulfonyloxy)phenyl)propanoic acid level at 10 uM after 60 mins; assay type: ADME, cell-based; conditions: 1 h
Hepatocyte [16] = assay: Drug metabolism in human hepatocytes assessed as (R)-2-(4-(trifluoromethylsulfonyloxy)phenyl)propanoic acid level at 10 uM after 90 mins; assay type: ADME, cell-based; conditions: 1.5 h
Hepatocyte [17] = assay: Drug metabolism in human hepatocytes assessed as (R)-2-(4-(trifluoromethylsulfonyloxy)phenyl)propanoic acid level at 10 uM after 120 mins; assay type: ADME, cell-based; conditions: 2 h
CYP2C9 = CYP2C9 (Homo sapiens, UniProt P11712); assay: Inhibition of CYP2C9 using 7MFC as substrate at 10 uM; assay type: ADME; conditions: probe 7MFC
CYP3A4 = CYP3A4 (Homo sapiens, UniProt P08684); assay: Inhibition of CYP3A4 using BFC as substrate at 10 uM; assay type: ADME; conditions: probe BFC
CYP2D6 = CYP2D6 (Homo sapiens, UniProt P10635); assay: Inhibition of CYP2D6 using AMMC as substrate at 10 uM; assay type: ADME; conditions: probe AMMC
CYP1A2 = biological target: T1, CYP1A2 (Homo sapiens, UniProt P05177); assay: Inhibition of CYP1A2 using CEC as substrate at 10 uM; assay type: ADME; conditions: probe CEC
T1 sequence (P05177 whole entry): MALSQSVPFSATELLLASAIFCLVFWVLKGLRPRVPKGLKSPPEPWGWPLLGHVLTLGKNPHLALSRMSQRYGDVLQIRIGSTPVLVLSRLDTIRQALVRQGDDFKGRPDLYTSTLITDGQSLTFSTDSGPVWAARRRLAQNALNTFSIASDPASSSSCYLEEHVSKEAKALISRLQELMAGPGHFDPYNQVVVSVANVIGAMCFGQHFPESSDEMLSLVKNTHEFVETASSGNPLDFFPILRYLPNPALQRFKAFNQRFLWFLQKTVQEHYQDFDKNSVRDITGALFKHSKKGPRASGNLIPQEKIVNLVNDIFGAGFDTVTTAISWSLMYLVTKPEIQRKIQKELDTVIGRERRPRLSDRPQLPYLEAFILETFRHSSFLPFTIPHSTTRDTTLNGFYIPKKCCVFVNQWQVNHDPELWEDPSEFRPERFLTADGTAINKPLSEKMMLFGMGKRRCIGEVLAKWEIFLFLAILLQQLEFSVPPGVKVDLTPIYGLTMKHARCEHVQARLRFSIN

[18] = biological target: T2, C-X-C chemokine receptor type 2 (Homo sapiens) (UniProt P25025); assay: Inhibition of CXCR2 in human polymorphonucleate cells assessed as inhibition of CXCL1-induced chemotaxis at 10^-8 M incubated for 15 mins prior to CXCL1-induction measured after 45 mins
T2 sequence (whole entry): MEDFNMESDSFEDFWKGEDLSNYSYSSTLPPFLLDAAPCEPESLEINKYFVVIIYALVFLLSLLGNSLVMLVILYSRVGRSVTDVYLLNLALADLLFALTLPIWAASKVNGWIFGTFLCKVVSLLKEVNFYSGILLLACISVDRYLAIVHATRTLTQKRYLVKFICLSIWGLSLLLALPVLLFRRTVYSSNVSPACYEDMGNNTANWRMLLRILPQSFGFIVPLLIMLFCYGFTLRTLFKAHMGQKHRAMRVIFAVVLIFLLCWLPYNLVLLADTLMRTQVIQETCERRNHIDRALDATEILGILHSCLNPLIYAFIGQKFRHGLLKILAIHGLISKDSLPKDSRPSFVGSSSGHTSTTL

[19] = biological target: Interleukin-8 receptors, CXCR1/CXCR2 (Homo sapiens) (UniProt P25025+P25024); assay: Inhibition of CXCR1/2 in human polymorphonucleate cells assessed as inhibition of CXCL8-induced chemotaxis at 10^-8 M incubated for 15 mins prior to CXCL8-induction measured after 45 mins
[20] = Clearance in Sprague-Dawley rat at 14 mg/kg, iv; assay type: ADME, organism-based; design: dose 14 mg/kg, route intravenous; conditions: in vivo
[21] = Oral bioavailability in Sprague-Dawley rat at 14 mg/kg; assay type: ADME, organism-based; conditions: in vivo
[22] = Elimination half life in Sprague-Dawley rat at 14 mg/kg, iv; assay type: ADME, organism-based; design: dose 14 mg/kg, route intravenous; conditions: in vivo, read-out: beta t1/2 (converted)
[23] = biological target: Voltage-gated inwardly rectifying potassium channel KCNH2 (Homo sapiens, UniProt Q12809); assay: Displacement of [3H]astemizole from human ERG expressed in HEK293 cells at 10 uM for 60 mins by liquid scintillation counting; assay type: cell-based; conditions: hek293, 1 h
[24] = Dissociation constant, pKa of the compound; assay type: physicochemical
Hepatocyte [25] = assay: Drug metabolism in rat hepatocytes assessed as (R)-2-(4-(trifluoromethylsulfonyloxy)phenyl)propanoic acid level at 10 uM after 120 mins; assay type: ADME, cell-based; conditions: 2 h
Hepatocyte [26] = assay: Drug metabolism in rat hepatocytes assessed as (R)-2-(4-(trifluoromethylsulfonyloxy)phenyl)propanoic acid level at 10 uM after 90 mins; assay type: ADME, cell-based; conditions: 1.5 h
Hepatocyte [27] = assay: Drug metabolism in rat hepatocytes assessed as (R)-2-(4-(trifluoromethylsulfonyloxy)phenyl)propanoic acid level at 10 uM after 60 mins; assay type: ADME, cell-based; conditions: 1 h
Hepatocyte [28] = assay: Drug metabolism in rat hepatocytes assessed as (R)-2-(4-(trifluoromethylsulfonyloxy)phenyl)propanoic acid level at 10 uM after 30 mins; assay type: ADME, cell-based; conditions: 0.5 h
Hepatocyte [29] = assay: Drug metabolism in rat hepatocytes assessed as (R)-2-(4-(trifluoromethylsulfonyloxy)phenyl)propanoic acid level at 10 uM after 15 mins; assay type: ADME, cell-based; conditions: 0.25 h
Hepatocyte [30] = assay: Drug metabolism in rat hepatocytes assessed as (S)-2-(4-(trifluoromethylsulfonyloxy)phenyl)propanoic acid level at 10 uM after 120 mins; assay type: ADME, cell-based; conditions: 2 h
Hepatocyte [31] = assay: Drug metabolism in rat hepatocytes assessed as (S)-2-(4-(trifluoromethylsulfonyloxy)phenyl)propanoic acid level at 10 uM after 90 mins; assay type: ADME, cell-based; conditions: 1.5 h
Hepatocyte [32] = assay: Metabolic stability in rat hepatocytes assessed as compound remaining at 10 uM after 120 mins; assay type: ADME, cell-based; conditions: 2 h
Hepatocyte [33] = assay: Metabolic stability in rat hepatocytes assessed as compound remaining at 10 uM after 90 mins; assay type: ADME, cell-based; conditions: 1.5 h
Hepatocyte [34] = assay: Metabolic stability in rat hepatocytes assessed as compound remaining at 10 uM after 60 mins; assay type: ADME, cell-based; conditions: 1 h
Hepatocyte [35] = assay: Metabolic stability in rat hepatocytes assessed as compound remaining at 10 uM after 30 mins; assay type: ADME, cell-based; conditions: 0.5 h
Hepatocyte [36] = assay: Metabolic stability in rat hepatocytes assessed as compound remaining at 10 uM after 15 mins; assay type: ADME, cell-based; conditions: 0.25 h
Hepatocyte [37] = assay: Metabolic stability in human hepatocytes assessed as compound remaining at 10 uM after 120 mins; assay type: ADME, cell-based; conditions: 2 h
Hepatocyte [38] = assay: Metabolic stability in human hepatocytes assessed as compound remaining at 10 uM after 90 mins; assay type: ADME, cell-based; conditions: 1.5 h
Hepatocyte [39] = assay: Metabolic stability in human hepatocytes assessed as compound remaining at 10 uM after 60 mins; assay type: ADME, cell-based; conditions: 1 h
Hepatocyte [40] = assay: Metabolic stability in human hepatocytes assessed as compound remaining at 10 uM after 30 mins; assay type: ADME, cell-based; conditions: 0.5 h
Hepatocyte [41] = assay: Metabolic stability in human hepatocytes assessed as compound remaining at 10 uM after 15 mins; assay type: ADME, cell-based; conditions: 0.25 h
[42] = Chemical stability of the compound assessed as compound remaining at pH 7.4 after 2 hrs; assay type: physicochemical; conditions: buffer, read-out: Stability

Sequence of CYP2D6 (P10635 whole entry): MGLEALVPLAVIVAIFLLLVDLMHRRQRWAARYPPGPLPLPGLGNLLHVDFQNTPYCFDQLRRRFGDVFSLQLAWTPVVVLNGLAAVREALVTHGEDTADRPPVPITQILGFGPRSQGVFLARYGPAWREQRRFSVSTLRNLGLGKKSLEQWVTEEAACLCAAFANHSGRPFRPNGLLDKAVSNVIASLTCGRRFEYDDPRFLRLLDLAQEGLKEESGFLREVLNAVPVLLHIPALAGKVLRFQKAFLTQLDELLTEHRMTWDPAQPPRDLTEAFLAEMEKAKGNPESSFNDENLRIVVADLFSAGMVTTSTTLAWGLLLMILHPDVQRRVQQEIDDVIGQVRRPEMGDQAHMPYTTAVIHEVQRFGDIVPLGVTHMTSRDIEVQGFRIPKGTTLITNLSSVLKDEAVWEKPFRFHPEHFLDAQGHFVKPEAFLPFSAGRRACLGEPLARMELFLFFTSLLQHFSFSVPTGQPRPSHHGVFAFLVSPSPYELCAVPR
Sequence of CYP3A4 (P08684 whole entry): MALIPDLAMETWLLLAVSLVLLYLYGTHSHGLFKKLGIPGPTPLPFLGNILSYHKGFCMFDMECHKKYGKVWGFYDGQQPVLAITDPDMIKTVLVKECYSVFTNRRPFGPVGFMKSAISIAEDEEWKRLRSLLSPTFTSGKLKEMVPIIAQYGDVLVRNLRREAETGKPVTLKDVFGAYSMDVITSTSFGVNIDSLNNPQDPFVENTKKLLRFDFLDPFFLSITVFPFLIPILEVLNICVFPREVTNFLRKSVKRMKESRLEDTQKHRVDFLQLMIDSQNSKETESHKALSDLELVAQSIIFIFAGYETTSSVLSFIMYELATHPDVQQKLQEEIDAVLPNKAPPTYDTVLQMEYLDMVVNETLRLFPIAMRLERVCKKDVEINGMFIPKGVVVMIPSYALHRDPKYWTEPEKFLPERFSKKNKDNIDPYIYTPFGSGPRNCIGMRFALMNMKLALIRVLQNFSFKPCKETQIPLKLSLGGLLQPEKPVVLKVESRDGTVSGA
Sequence of CYP2C9 (P11712 whole entry): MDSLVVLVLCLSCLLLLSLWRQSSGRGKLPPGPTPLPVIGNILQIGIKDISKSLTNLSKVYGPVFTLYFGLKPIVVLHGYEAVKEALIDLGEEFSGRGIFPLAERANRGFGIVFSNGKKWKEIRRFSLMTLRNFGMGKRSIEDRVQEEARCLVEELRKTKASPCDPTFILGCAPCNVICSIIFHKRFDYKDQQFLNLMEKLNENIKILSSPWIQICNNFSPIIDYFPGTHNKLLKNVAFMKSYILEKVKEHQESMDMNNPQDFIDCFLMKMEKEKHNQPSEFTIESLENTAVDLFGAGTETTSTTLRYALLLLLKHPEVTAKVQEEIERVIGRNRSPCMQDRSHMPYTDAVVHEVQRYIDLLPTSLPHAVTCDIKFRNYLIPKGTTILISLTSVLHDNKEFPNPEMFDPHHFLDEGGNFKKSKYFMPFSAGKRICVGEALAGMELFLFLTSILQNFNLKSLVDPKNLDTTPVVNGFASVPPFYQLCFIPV
Sequence of CYP2C19 (P33261 whole entry): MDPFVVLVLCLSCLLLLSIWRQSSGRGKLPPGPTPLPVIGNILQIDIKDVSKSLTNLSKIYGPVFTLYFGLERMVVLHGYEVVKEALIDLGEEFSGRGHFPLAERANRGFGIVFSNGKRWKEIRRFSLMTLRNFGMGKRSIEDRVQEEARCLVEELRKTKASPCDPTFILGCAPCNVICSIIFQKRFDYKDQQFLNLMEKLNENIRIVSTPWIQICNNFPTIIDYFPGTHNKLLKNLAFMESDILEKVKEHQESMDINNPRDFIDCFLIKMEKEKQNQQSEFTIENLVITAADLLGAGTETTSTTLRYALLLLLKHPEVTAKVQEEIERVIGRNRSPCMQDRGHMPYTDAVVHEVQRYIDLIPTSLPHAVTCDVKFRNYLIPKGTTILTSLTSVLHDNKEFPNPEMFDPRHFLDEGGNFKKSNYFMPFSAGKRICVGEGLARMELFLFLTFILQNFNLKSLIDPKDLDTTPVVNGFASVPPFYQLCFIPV
Sequence of Voltage-gated inwardly rectifying potassium channel KCNH2 (Q12809 whole entry): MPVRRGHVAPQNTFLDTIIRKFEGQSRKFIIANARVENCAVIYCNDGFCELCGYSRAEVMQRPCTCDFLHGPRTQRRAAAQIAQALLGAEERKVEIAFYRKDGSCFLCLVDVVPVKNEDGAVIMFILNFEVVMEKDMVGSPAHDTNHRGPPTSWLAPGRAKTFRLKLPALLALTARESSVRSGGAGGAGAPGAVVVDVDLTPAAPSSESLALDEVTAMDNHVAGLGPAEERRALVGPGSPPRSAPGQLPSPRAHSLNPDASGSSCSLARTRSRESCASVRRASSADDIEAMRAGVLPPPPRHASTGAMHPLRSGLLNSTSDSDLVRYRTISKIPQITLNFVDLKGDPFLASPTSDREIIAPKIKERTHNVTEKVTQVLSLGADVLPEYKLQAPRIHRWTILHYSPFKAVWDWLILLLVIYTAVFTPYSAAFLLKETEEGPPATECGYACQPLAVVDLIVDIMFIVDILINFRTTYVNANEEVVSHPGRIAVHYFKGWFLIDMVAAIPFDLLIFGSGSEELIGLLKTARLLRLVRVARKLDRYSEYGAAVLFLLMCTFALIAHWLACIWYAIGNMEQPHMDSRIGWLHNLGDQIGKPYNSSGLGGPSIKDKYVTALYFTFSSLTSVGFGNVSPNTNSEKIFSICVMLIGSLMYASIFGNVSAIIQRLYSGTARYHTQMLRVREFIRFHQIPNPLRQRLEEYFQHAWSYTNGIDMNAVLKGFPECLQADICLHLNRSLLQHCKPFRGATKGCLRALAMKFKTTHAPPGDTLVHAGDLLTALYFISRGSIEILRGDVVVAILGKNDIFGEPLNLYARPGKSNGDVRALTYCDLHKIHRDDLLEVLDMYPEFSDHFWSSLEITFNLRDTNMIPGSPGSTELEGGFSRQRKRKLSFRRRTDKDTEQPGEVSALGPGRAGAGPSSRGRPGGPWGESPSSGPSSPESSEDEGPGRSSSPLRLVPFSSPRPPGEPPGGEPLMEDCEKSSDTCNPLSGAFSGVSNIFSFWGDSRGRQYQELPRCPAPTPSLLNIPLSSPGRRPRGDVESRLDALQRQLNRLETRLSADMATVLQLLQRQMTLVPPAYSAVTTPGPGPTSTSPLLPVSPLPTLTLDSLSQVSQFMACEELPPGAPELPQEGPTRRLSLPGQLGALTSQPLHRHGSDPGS

C[C@@H](C(=O)NS(C)(=O)=O)c1ccc(OS(=O)(=O)C(F)(F)F)cc1 [LADARIXIN]
Drug metabolism (Hepatocyte [1]): 50 ng/mL
Drug metabolism (Hepatocyte [2]): 31 ng/mL
Drug metabolism (Hepatocyte [3]): 7 ng/mL
Drug metabolism (Hepatocyte [4]): 6 ng/mL
Drug metabolism (Hepatocyte [5]): 3 ng/mL
Drug metabolism (Hepatocyte [6]): 2 ng/mL
Drug metabolism (Hepatocyte [7]): < 1 ng/mL
Drug metabolism (Hepatocyte [8]): < 1 ng/mL
remaining at 2 h [9]: 30%
remaining at 2 h [10]: > 99%
remaining at 0.5 h, 1 µM [11]: 100%
remaining at 1 h, 1 µM [12]: 100%
inhibition at 10 µM (CYP2C19): < 5%
Drug metabolism (Hepatocyte [13]): < 1 ng/mL
Drug metabolism (Hepatocyte [14]): 3 ng/mL
Drug metabolism (Hepatocyte [15]): 15 ng/mL
Drug metabolism (Hepatocyte [16]): 20 ng/mL
Drug metabolism (Hepatocyte [17]): 30 ng/mL
inhibition at 10 µM (CYP2C9): < 5%
inhibition at 10 µM (CYP3A4): < 5%
inhibition at 10 µM (CYP2D6): < 5%
inhibition at 10 µM (CYP1A2): < 5%
inhibition [18]: 68%
inhibition [19]: 67%
clearance [20]: 0.1 mL/min/kg
bioavailability [21]: 100%
half-life [22]: 19 h
inhibition (INH) [23]: Not Active
pKa [24]: 4.4
Drug metabolism (Hepatocyte [25]): 4 ng/mL
Drug metabolism (Hepatocyte [26]): 5 ng/mL
Drug metabolism (Hepatocyte [27]): 3 ng/mL
Drug metabolism (Hepatocyte [28]): 5 ng/mL
Drug metabolism (Hepatocyte [29]): 22 ng/mL
Drug metabolism (Hepatocyte [30]): 56 ng/mL
Drug metabolism (Hepatocyte [31]): 54 ng/mL

C[C@@H](C(=O)O)c1ccc(OS(=O)(=O)C(F)(F)F)cc1
Drug metabolism (Hepatocyte [1]): 449 ng/mL
Drug metabolism (Hepatocyte [2]): 210 ng/mL
Drug metabolism (Hepatocyte [3]): 117 ng/mL
Stability (Hepatocyte [32]): 1946 ng/mL
Stability (Hepatocyte [33]): 2167 ng/mL
Stability (Hepatocyte [34]): 2287 ng/mL
Stability (Hepatocyte [35]): 2541 ng/mL
Stability (Hepatocyte [36]): 2839 ng/mL
Drug metabolism (Hepatocyte [4]): 330 ng/mL
Drug metabolism (Hepatocyte [5]): 260 ng/mL
Drug metabolism (Hepatocyte [6]): 240 ng/mL
Drug metabolism (Hepatocyte [7]): 84 ng/mL
Drug metabolism (Hepatocyte [8]): 21 ng/mL
Stability (Hepatocyte [37]): 2541 ng/mL
Stability (Hepatocyte [38]): 2620 ng/mL
Stability (Hepatocyte [39]): 2696 ng/mL
Stability (Hepatocyte [40]): 2844 ng/mL
remaining at 2 h [9]: 30%
Stability (Hepatocyte [41]): 2932 ng/mL
remaining at 2 h [10]: > 99%
remaining at 2 h [42]: > 99%
remaining at 1 h, 1 µM [12]: 100%
inhibition at 10 µM (CYP2C19): < 5%
inhibition at 10 µM (CYP2C9): < 5%
inhibition at 10 µM (CYP3A4): < 5%
inhibition at 10 µM (CYP2D6): < 5%
inhibition at 10 µM (CYP1A2): < 5%
inhibition [18]: 63%
inhibition [19]: 62%
pKa [24]: 4
Drug metabolism (Hepatocyte [30]): 870 ng/mL
Drug metabolism (Hepatocyte [31]): 664 ng/mL
